According to patent publication US9457030B2, “Compositions and methods for the treatment of juvenile neuronal ceroid lipofuscinosis and related disorders” (BOARD OF REGENTS OF THE UNIVERSITY OF NEBRASKA, priority 2012, dated 2016):
Entries after “also recorded” stand apart in the source; their conditions may differ.

Assays:
CLN3^Δex7/8 microglia [1] = assay: IL-1β and TNF-α production by primary microglia (ELISA); assay type: cell-based, mouse; settings: 1 hour pre-treatment, then 20 μM ceramide+neuron lysates for 24 hours, CLN3 mutant microglia
Procedure: (§1) FIG. 21. PDE-4 inhibitors attenuate IL-1β and TNF-α production in CLN3^Δex7/8 microglia. Primary microglia were isolated from the brains of CLN3 WT or CLN3 mutant mice, whereupon cells were pre-treated with various concentrations of the phosphodiesterase-4 inhibitor propentofylline (PPF) for 1 hour followed by a combination of molecules known to be elevated in the JNCL brain (20 μM ceramide+neuron lysates) for 24 hours. Conditioned medium was collected at 24 hours post-treatment and IL-1β and TNF-α expression was determined by ELISA. **, p<0.01 for WT versus CLN3 mutant microglia; #, p<0.05; ##, p<0.01; ###, p<0.001 for CLN3 mutant microglia treated with PPF versus vehicle control.
as §1, with “22.” for “21.”, “rolipram (Rol)” for “propentofylline (PPF)”, “p<0.05;” for “p<0.05; ##, p<0.01;”, “Rol” for “PPF”
as §1, with “24.” for “21.”, “attenuate” for “attenuate IL-1β and”, “roflumilast (Rof)” for “propentofylline (PPF)”, “and” for “and IL-1β and”, “microglia.” for “microglia; #, p<0.05; ##, p<0.01; ###, p<0.001 for CLN3 mutant microglia treated with PPF versus vehicle control.”
In these experiments, primary microglia are isolated from the brains of CLN3^Δex7/8 and WT mice^8,25-27. Microglia are exposed to previously optimized concentrations of glutamate (50 μM), ATP (5 mM), ceramide (20-100 μM), neuronal lysate (1:2 or 1:5 dilution), or LPS+ATP as a positive control (100 ng/ml and 5 mM, respectively) for 24 hours, whereupon interleukin-1β (IL-1β) and tumor necrosis factor-α (TNF-α) expression are quantitated by ELISA. These cytokines were selected for analysis because they have been directly implicated in contributing to microglia-induced neuronal cell death^14,28 and also because they intersect with oxidative pathways described herein. […] In addition, CLN3 loss is examined to determine if the loss augments caspase-1 activity, a key inflammasome component that senses oxidative stress and lysosomal damage, resulting in IL-1β cleavage and secretion by microglia^8. Here, CLN3^Δex7/8 and WT microglia are exposed to the same stimuli described above, followed by incubation with the FLICA reagent (Immunochemistry Technologies LLC), a caspase-1 substrate that emits fluorescence when cleaved by the active enzyme^29. […] Indeed, studies support this expectation because caspase-1 activity was elevated in CLN3^Δex7/8 microglia compared to WT cells (FIG. 3).

CLN3^Δex7/8 microglia [2] = assay: Intracellular cAMP in primary microglia; assay type: cell-based, mouse; settings: rolipram 10 μM in FIG. 23, 24 hours post-treatment
Procedure: FIG. 23. CLN3^Δex7/8 microglia display reduced intracellular cAMP constitutively, which is enhanced by the PDE-4 inhibitors. Primary microglia were isolated from the brains of CLN3 WT or CLN3 mutant mice, whereupon cells were pre-treated with the phosphodiesterase-4 inhibitor rolipram (Rol; 10 μM) for 1 hour followed by a combination of molecules known to be elevated in the JNCL brain (20 μM ceramide+neuron lysates) for 24 hours. Intracellular cAMP levels were determined at 24 hours post-treatment (*, p<0.05).

astrocytes = settings: cited from earlier work

Compound	IL-1β production (CLN3^Δex7/8 microglia [1])	TNF-α production (CLN3^Δex7/8 microglia [1])	IL-1β production (CLN3^Δex7/8 microglia [1]; listed as PPF)	Intracellular cAMP levels (CLN3^Δex7/8 microglia [2])	glutamate transporter expression in astrocytes (astrocytes)
O=C(Nc1c(Cl)cncc1Cl)c1ccc(OC(F)F)c(OCC2CC2)c1 [roflumilast]	inhibit	attenuate			
CCCn1cnc2c1c(=O)n(CCCCC(C)=O)c(=O)n2C [propentofylline]	attenuate	attenuate	significantly reduced IL-1β release	increased	increase glutamate transporter expression in astrocytes
COc1ccc(C2CNC(=O)C2)cc1OC1CCCC1 (stereo not shown) [rolipram]	attenuate; also recorded: significantly reduced IL-1β release	attenuate		enhanced; also recorded: increased	
